Measured values published in US8017767B2, “Sucralose composition” (Tate & Lyle Public Limited Company, priority 2000, dated 2011).

Test: Accelerated stability test (50° C.) with pH stability test of sucralose sample solution
Assay type: physicochemical
Conditions: for Days to pH Failure: WHIRLPAK polyethylene bags, failure = pH drop ≧1.0; for Initial pH: sample solution (5 g in 50 ml pH-adjusted water) at time zero; for Initial pH difference: sample solution vs pH-adjusted water at time zero
Excerpt: Label seven 6 oz. and seven 18 oz. WHIRLPAK® polyethylene bags with indelible marker for each batch being tested for stability. Accurately weigh 25 g±0.01 g of sucralose into each 6 oz. WHIRLPAK® polyethylene bag. Heat or impulse seal the 6 oz. bag to ensure air tightness. Cut off any excess polyethylene at the top of the bag above the seal. Place the 6 oz. sealed bag into the 18 oz. bag and heat or impulse seal the 18 oz. bag to ensure air tightness. Roll down the top of the 18 oz. bag above the seal and bend the metal ties to form hooks.
Place the prepared bags into an oven stabilized at 50° C.±0.5° C. by hanging them from racks by the bag hooks. The bags must be freely suspended and not touch anything. Record the time samples are placed into the oven.
The pH stability test is conducted on the sucralose at time zero (the day the samples are placed in the oven, before the sucralose is exposed to elevated temperature) and every 24 hours until the batch being tested fails the test.
Place approximately 100 ml of deionized water into a 150 ml beaker. Using 0.1 N hydrochloric acid and/or 0.1 N sodium hydroxide, adjust the pH of the water to be between 5.8 and 6.0. Record the pH reading.
Accurately weigh 5 g±0.001 g of the product to be tested and transfer it to a 50 ml volumetric flask. Dissolve and bring to the mark by adding pH-adjusted water. If the sample to be tested is one that has been exposed to heat, remove one bag of the batch being tested from the oven and allow it to cool to room temperature before opening and sampling.
Pour the solution into a 100 ml beaker containing a stir bar, and slowly stir the solution on a magnetic stirrer. Immerse the pH electrode in the sample, allow the pH reading to stabilize, and record the pH reading of the sample. If no pH drop is observed after all the bags have been tested, the experiment is void and the test must repeated with a larger number of bags.
Record (to one decimal place) the pH of both the pH-adjusted water used and the sample sucralose solution. Subtract the pH of the […]. Report the result as (−) for a pH drop and (+) for a pH gain, e.g.:
The sample fails the test if there is a pH drop of 1.0 pH unit or more. The pH stability of the batch is defined as the number of days until the pH drop between the sample solution and that of the pH adjusted water is ≧1.0.
Samples of sucralose were tested for stability using the above procedures, but using bags of different moisture permeability. All other experimental details were the same. The TYVEK®/polyethylene bags are permeable; the WHIRLPAK® bags are less permeable. The A8080 bag consists of aluminum foil laminated to low-density polyethylene, which makes it very impermeable to moisture.

[1] = 50° C., Example 1, sodium acetate in mother liquor varied
[2] = Example 1, sodium acetate in mother liquor varied
[3] = (−) pH drop, (+) pH gain, Example 1
[4] = 50° C., Example 2, pH at crystallizer varied
[5] = Example 2, pH at crystallizer varied
[6] = 50° C., package A8080 (aluminum foil laminated to low-density polyethylene), impermeable
[7] = 50° C., package FF 91 TYVEK/Polyethylene, very permeable

Row | Structure (SMILES) | Days to pH Failure [1] | Initial pH [2] | Initial pH difference [3] | also measured
1 | OC[C@H]1O[C@H](O[C@]2(CCl)O[C@H](CCl)[C@@H](O)[C@@H]2O)[C@H](O)[C@@H](O)[C@H]1Cl [Sample 18, 4,1′,6′-trichloro-4,1′,6′-trideoxy-galactosucrose] | 6 Days | 6.00 | +0.07 | 
2 | OC[C@H]1O[C@H](O[C@]2(CCl)O[C@H](CCl)[C@@H](O)[C@@H]2O)[C@H](O)[C@@H](O)[C@H]1Cl [Sample 45, 4,1′,6′-trichloro-4,1′,6′-trideoxy-galactosucrose] |  |  |  | Days to pH Failure [4]: 7 Days; Initial pH difference [5]: +0.17
3 | OC[C@H]1O[C@H](O[C@]2(CCl)O[C@H](CCl)[C@@H](O)[C@@H]2O)[C@H](O)[C@@H](O)[C@H]1Cl [Sample 24, 4,1′,6′-trichloro-4,1′,6′-trideoxy-galactosucrose] | 5 Days | 6.02 | +0.03 | Ph Stability [6]: 8 days; Ph Stability [7]: 4 days; Ph Stability (50° C., package WHIRLPAK Polyethylene, moderately permeable): 5 days
4 | OC[C@H]1O[C@H](O[C@]2(CCl)O[C@H](CCl)[C@@H](O)[C@@H]2O)[C@H](O)[C@@H](O)[C@H]1Cl [Sample 2, 4,1′,6′-trichloro-4,1′,6′-trideoxy-galactosucrose] | 6 Days | 5.73 | −0.19 | 
5 | OC[C@H]1O[C@H](O[C@]2(CCl)O[C@H](CCl)[C@@H](O)[C@@H]2O)[C@H](O)[C@@H](O)[C@H]1Cl [Sample 32, 4,1′,6′-trichloro-4,1′,6′-trideoxy-galactosucrose] |  |  |  | Days to pH Failure [4]: 3 Days; stability at intermediate moisture contents compared with final moisture levels (crystallized with no pH control, intermediate moisture 3 to 5% vs final 0.05, 0.11, 0.21%): less stable at intermediate moisture contents (3 to 5%) than they were at their final moisture levels; Initial pH difference [5]: −0.90
6 | OC[C@H]1O[C@H](O[C@]2(CCl)O[C@H](CCl)[C@@H](O)[C@@H]2O)[C@H](O)[C@@H](O)[C@H]1Cl [Sample 15, 4,1′,6′-trichloro-4,1′,6′-trideoxy-galactosucrose] | 5 Days | 6.06 | +0.13 | 
7 | OC[C@H]1O[C@H](O[C@]2(CCl)O[C@H](CCl)[C@@H](O)[C@@H]2O)[C@H](O)[C@@H](O)[C@H]1Cl [Sample 40, 4,1′,6′-trichloro-4,1′,6′-trideoxy-galactosucrose] |  |  |  | Days to pH Failure [4]: 7 Days; Days to pH Failure (Final Product Moisture Content) (50° C., final dried product, Example 3): 7 Days; Days to pH Failure (Initial Moisture Content) (50° C., partially dried product at intermediate (initial) moisture content, Example 3): 13 Days; Initial pH difference [5]: +0.40
8 | OC[C@H]1O[C@H](O[C@]2(CCl)O[C@H](CCl)[C@@H](O)[C@@H]2O)[C@H](O)[C@@H](O)[C@H]1Cl [Sample 3, 4,1′,6′-trichloro-4,1′,6′-trideoxy-galactosucrose] | 6 Days | 5.44 | −0.48 | 
9 | OC[C@H]1O[C@H](O[C@]2(CCl)O[C@H](CCl)[C@@H](O)[C@@H]2O)[C@H](O)[C@@H](O)[C@H]1Cl [Sample 10, 4,1′,6′-trichloro-4,1′,6′-trideoxy-galactosucrose] | 5 Days | 5.90 | −0.05 | 
10 | OC[C@H]1O[C@H](O[C@]2(CCl)O[C@H](CCl)[C@@H](O)[C@@H]2O)[C@H](O)[C@@H](O)[C@H]1Cl [sucralose, 4,1′,6′-trichloro-4,1′,6′-trideoxy-galactosucrose] |  |  |  | Ph Stability [6]: 33 days; Ph Stability [7]: 4 days
11 | OC[C@H]1O[C@H](O[C@]2(CCl)O[C@H](CCl)[C@@H](O)[C@@H]2O)[C@H](O)[C@@H](O)[C@H]1Cl [Sample 28, 4,1′,6′-trichloro-4,1′,6′-trideoxy-galactosucrose] | 6 Days | 6.00 | +0.02 | 
12 | OC[C@H]1O[C@H](O[C@]2(CCl)O[C@H](CCl)[C@@H](O)[C@@H]2O)[C@H](O)[C@@H](O)[C@H]1Cl [Sample 6, 4,1′,6′-trichloro-4,1′,6′-trideoxy-galactosucrose] | 4 Days | 5.53 | −0.39 | 
